Test results from PubChem BioAssay AID272 (DTP/NCI, 2004).
Records with an inconclusive call do not appear.

Tested on: Lewis lung carcinoma i.m., BDF1 mice, T/C %
Assay: NCI In Vivo Anticancer Drug Screen. Data for tumor model Lewis Lung Carcinoma (intramuscular) in B6D2F1 (BDF1) mice
Outline: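 Mice carrying transplantable tumours received test compound. Survival or tumour size was recorded and expressed as the treated-group value (T) divided by the vehicle-treated control-group value (C).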

## COc1ccc(N=O)c(O)c1
endpoint: median survival time, dose: 25.0 mg/kg/injection, schedule: Q01DX011 (ip), vehicle: saline, higher = longer survival
  T/C: 97 % of control
endpoint: median survival time, dose: 50.0 mg/kg/injection, schedule: Q01DX011 (ip), vehicle: saline, higher = longer survival
  T/C: 100 % of control
endpoint: median survival time, dose: 100.0 mg/kg/injection, schedule: Q01DX011 (ip), vehicle: saline, higher = longer survival
  T/C: 110 % of control

## CN=C1N[N+]2=CCCCC2S1 (stereo not given)
endpoint: median survival time, dose: 40.0 mg/kg/injection, schedule: Q02DX011 (ip), vehicle: saline with Tween-80, higher = longer survival
  T/C: 99 % of control
endpoint: median survival time, dose: 60.0 mg/kg/injection, schedule: Q02DX011 (ip), vehicle: saline with Tween-80, higher = longer survival
  T/C: 86 % of control
endpoint: median survival time, dose: 80.0 mg/kg/injection, schedule: Q02DX011 (ip), vehicle: saline with Tween-80, higher = longer survival
  T/C: 93 % of control

## NC(=O)c1cc(N2CC2)c([N+](=O)[O-])cc1[N+](=O)[O-]
endpoint: mean tumor weight, dose: 10.0 mg/kg/injection, schedule: Q01DX011 (ip), vehicle: saline with Tween-80, higher = larger tumour
  T/C: 100 % of control
endpoint: mean tumor weight, dose: 20.0 mg/kg/injection, schedule: Q01DX011 (ip), vehicle: saline with Tween-80, higher = larger tumour
  T/C: 52 % of control
endpoint: mean tumor weight, dose: 40.0 mg/kg/injection, schedule: Q01DX011 (ip), vehicle: saline with Tween-80, higher = larger tumour
  T/C: 5 % of control
endpoint: median survival time, dose: 10.0 mg/kg/injection, schedule: Q01DX011 (ip), vehicle: saline with Tween-80, higher = longer survival
  T/C: 94 % of control
endpoint: median survival time, dose: 20.0 mg/kg/injection, schedule: Q01DX011 (ip), vehicle: saline with Tween-80, higher = longer survival
  T/C: 116 % of control
endpoint: median survival time, dose: 40.0 mg/kg/injection, schedule: Q01DX011 (ip), vehicle: saline with Tween-80, higher = longer survival
  T/C: 88 % of control

## [N-]=[N+]=CC(=O)CCC(N)C(=O)O (stereo not given)
endpoint: mean tumor weight, dose: 7.5 micrograms/kg/injection, schedule: Q01DX011 (ip), vehicle: saline, higher = larger tumour
  T/C: 107 % of control
endpoint: mean tumor weight, dose: 15.0 micrograms/kg/injection, schedule: Q01DX011 (ip), vehicle: saline, higher = larger tumour
  T/C: 77 % of control
endpoint: mean tumor weight, dose: 30.0 micrograms/kg/injection, schedule: Q01DX011 (ip), vehicle: saline, higher = larger tumour
  T/C: 75 % of control
endpoint: mean tumor weight, dose: 60.0 micrograms/kg/injection, schedule: Q01DX011 (ip), vehicle: saline, higher = larger tumour
  T/C: 102 % of control
endpoint: median survival time, dose: 7.5 micrograms/kg/injection, schedule: Q01DX011 (ip), vehicle: saline, higher = longer survival
  T/C: 114 % of control
endpoint: median survival time, dose: 30.0 micrograms/kg/injection, schedule: Q01DX011 (ip), vehicle: saline, higher = longer survival
  T/C: 90 % of control
endpoint: median survival time, dose: 60.0 micrograms/kg/injection, schedule: Q01DX011 (ip), vehicle: saline, higher = longer survival
  T/C: 90 % of control

## C[C@]12CC[C@@H]3c4ccc(O)cc4CC[C@H]3[C@@H]1C[C@@H](O)[C@@H]2O
endpoint: mean tumor weight, dose: 3.13 mg/kg/injection, schedule: Q01DX011 (ip), vehicle: saline with Tween-80, higher = larger tumour
  T/C: 62 % of control
endpoint: median survival time, dose: 0.78 mg/kg/injection, schedule: Q01DX011 (ip), vehicle: saline with Tween-80, higher = longer survival
  T/C: 108 % of control
endpoint: median survival time, dose: 1.56 mg/kg/injection, schedule: Q01DX011 (ip), vehicle: saline with Tween-80, higher = longer survival
  T/C: 98 % of control
endpoint: median survival time, dose: 3.12 mg/kg/injection, schedule: Q01DX011 (ip), vehicle: saline with Tween-80, higher = longer survival
  T/C: 112 % of control
endpoint: median survival time, dose: 6.25 mg/kg/injection, schedule: Q01DX011 (ip), vehicle: saline with Tween-80, higher = longer survival
  T/C: 110 % of control

## COc1cc(C(=O)OC2CC34CCNC35CC(OC5(OC)C2O)c2cc3c(cc24)OCO3)ccc1O (stereo not given)
endpoint: mean tumor weight, dose: 1.0 mg/kg/injection, schedule: Q01DX011 (ip), vehicle: carboxymethylcellulose (CMC), higher = larger tumour
  T/C: 81 % of control
endpoint: mean tumor weight, dose: 2.0 mg/kg/injection, schedule: Q01DX011 (ip), vehicle: carboxymethylcellulose (CMC), higher = larger tumour
  T/C: 70 % of control
endpoint: mean tumor weight, dose: 4.0 mg/kg/injection, schedule: Q01DX011 (ip), vehicle: carboxymethylcellulose (CMC), higher = larger tumour
  T/C: 49 % of control
endpoint: median survival time, dose: 2.0 mg/kg/injection, schedule: Q01DX011 (ip), vehicle: carboxymethylcellulose (CMC), higher = longer survival
  T/C: 91 % of control
endpoint: median survival time, dose: 4.0 mg/kg/injection, schedule: Q01DX011 (ip), vehicle: carboxymethylcellulose (CMC), higher = longer survival
  T/C: 86 % of control

## CCCCCCC(=O)O[C@H]1CC[C@H]2[C@@H]3CCC4=CC(=O)CC[C@]4(C)[C@H]3CC[C@]12C
endpoint: median survival time, dose: 20.0 mg/kg/injection, schedule: Q01DX009 (ip), vehicle: Klucel (hydroxypropylcellulose) (HPC), higher = longer survival
  T/C: 94 % of control
endpoint: median survival time, dose: 40.0 mg/kg/injection, schedule: Q01DX009 (ip), vehicle: Klucel (hydroxypropylcellulose) (HPC), higher = longer survival
  T/C: 90 % of control
endpoint: median survival time, dose: 80.0 mg/kg/injection, schedule: Q01DX009 (ip), vehicle: Klucel (hydroxypropylcellulose) (HPC), higher = longer survival
  T/C: 91 % of control
endpoint: median survival time, dose: 160.0 mg/kg/injection, schedule: Q01DX009 (ip), vehicle: Klucel (hydroxypropylcellulose) (HPC), higher = longer survival
  T/C: 110 % of control

## O=c1cnn(C2OC(CO)C(O)C2O)c(=O)[nH]1 (stereo not given)
endpoint: median survival time, dose: 75.0 mg/kg/injection, schedule: Q01DX009 (ip), vehicle: Klucel (hydroxypropylcellulose) (HPC), higher = longer survival
  T/C: 112 % of control
endpoint: median survival time, dose: 150.0 mg/kg/injection, schedule: Q01DX009 (ip), vehicle: Klucel (hydroxypropylcellulose) (HPC), higher = longer survival
  T/C: 120 % of control
endpoint: median survival time, dose: 300.0 mg/kg/injection, schedule: Q01DX009 (ip), vehicle: Klucel (hydroxypropylcellulose) (HPC), higher = longer survival
  T/C: 121 % of control
endpoint: median survival time, dose: 600.0 mg/kg/injection, schedule: Q01DX009 (ip), vehicle: Klucel (hydroxypropylcellulose) (HPC), higher = longer survival
  T/C: 119 % of control

## CCN(CC)CCN1C(=O)c2cccc3cccc(c23)C1=O
endpoint: mean tumor weight (est.), dose: 27.5 mg/kg/injection, schedule: Q01DX011 (ip), vehicle: saline, higher = larger tumour
  T/C: 76 % of control
endpoint: mean tumor weight (est.), dose: 55.0 mg/kg/injection, schedule: Q01DX011 (ip), vehicle: saline, higher = larger tumour
  T/C: 55 % of control
endpoint: mean tumor weight (est.), dose: 110.0 mg/kg/injection, schedule: Q01DX011 (ip), vehicle: saline, higher = larger tumour
  T/C: 64 % of control

## O=C(Nc1ccc(S(=O)(=O)O)cc1)c1ccc([N+](=O)[O-])cc1
endpoint: mean tumor weight (est.), dose: 3.5 mg/kg/injection, schedule: Q01DX011 (ip), vehicle: saline, higher = larger tumour
  T/C: 87 % of control
endpoint: mean tumor weight (est.), dose: 7.0 mg/kg/injection, schedule: Q01DX011 (ip), vehicle: saline, higher = larger tumour
  T/C: 120 % of control
endpoint: mean tumor weight (est.), dose: 14.0 mg/kg/injection, schedule: Q01DX011 (ip), vehicle: saline, higher = larger tumour
  T/C: 94 % of control
endpoint: mean tumor weight (est.), dose: 28.0 mg/kg/injection, schedule: Q01DX011 (ip), vehicle: saline, higher = larger tumour
  T/C: 82 % of control
endpoint: median survival time, dose: 3.5 mg/kg/injection, schedule: Q01DX011 (ip), vehicle: saline, higher = longer survival
  T/C: 92 % of control
endpoint: median survival time, dose: 7.0 mg/kg/injection, schedule: Q01DX011 (ip), vehicle: saline, higher = longer survival
  T/C: 96 % of control
endpoint: median survival time, dose: 14.0 mg/kg/injection, schedule: Q01DX011 (ip), vehicle: saline, higher = longer survival
  T/C: 105 % of control
endpoint: median survival time, dose: 28.0 mg/kg/injection, schedule: Q01DX011 (ip), vehicle: saline, higher = longer survival
  T/C: 117 % of control

## O=C(CCl)Nc1ccc(C(=O)O)cc1
endpoint: median survival time, dose: 3.75 mg/kg/injection, schedule: Q01DX011 (ip), vehicle: saline with Tween-80, higher = longer survival
  T/C: 106 % of control
endpoint: median survival time, dose: 7.5 mg/kg/injection, schedule: Q01DX011 (ip), vehicle: saline with Tween-80, higher = longer survival
  T/C: 97 % of control
endpoint: median survival time, dose: 15.0 mg/kg/injection, schedule: Q01DX011 (ip), vehicle: saline with Tween-80, higher = longer survival
  T/C: 100 % of control

## O=c1ccc2nc3ccccc3sc-2c1
endpoint: mean tumor weight (est.), dose: 12.5 mg/kg/injection, schedule: Q01DX011 (ip), vehicle: saline with Tween-80, higher = larger tumour
  T/C: 73 % of control
endpoint: mean tumor weight (est.), dose: 25.0 mg/kg/injection, schedule: Q01DX011 (ip), vehicle: saline with Tween-80, higher = larger tumour
  T/C: 75 % of control
endpoint: mean tumor weight (est.), dose: 50.0 mg/kg/injection, schedule: Q01DX011 (ip), vehicle: saline with Tween-80, higher = larger tumour
  T/C: 78 % of control
endpoint: mean tumor weight (est.), dose: 100.0 mg/kg/injection, schedule: Q01DX011 (ip), vehicle: saline with Tween-80, higher = larger tumour
  T/C: 42 % of control
endpoint: median survival time, dose: 25.0 mg/kg/injection, schedule: Q01DX011 (ip), vehicle: saline with Tween-80, higher = longer survival
  T/C: 89 % of control

## C[N+](C)(C)c1cc2c(nn1)Nc1ccccc1S2
endpoint: mean tumor weight (est.), dose: 1.06 mg/kg/injection, schedule: Q01DX011 (ip), vehicle: saline, higher = larger tumour
  T/C: 83 % of control
endpoint: mean tumor weight (est.), dose: 2.12 mg/kg/injection, schedule: Q01DX011 (ip), vehicle: saline, higher = larger tumour
  T/C: 88 % of control
endpoint: mean tumor weight (est.), dose: 4.25 mg/kg/injection, schedule: Q01DX011 (ip), vehicle: saline, higher = larger tumour
  T/C: 69 % of control
endpoint: mean tumor weight (est.), dose: 8.5 mg/kg/injection, schedule: Q01DX011 (ip), vehicle: saline, higher = larger tumour
  T/C: 110 % of control
endpoint: median survival time, dose: 1.06 mg/kg/injection, schedule: Q01DX011 (ip), vehicle: saline, higher = longer survival
  T/C: 103 % of control
endpoint: median survival time, dose: 2.12 mg/kg/injection, schedule: Q01DX011 (ip), vehicle: saline, higher = longer survival
  T/C: 100 % of control
endpoint: median survival time, dose: 4.25 mg/kg/injection, schedule: Q01DX011 (ip), vehicle: saline, higher = longer survival
  T/C: 105 % of control
endpoint: median survival time, dose: 8.5 mg/kg/injection, schedule: Q01DX011 (ip), vehicle: saline, higher = longer survival
  T/C: 96 % of control

## Cc1cc2nc(CBr)c(CBr)nc2cc1C
endpoint: mean tumor weight (est.), dose: 0.75 mg/kg/injection, schedule: Q01DX011 (ip), vehicle: saline with Tween-80, higher = larger tumour
  T/C: 87 % of control
endpoint: mean tumor weight (est.), dose: 1.5 mg/kg/injection, schedule: Q01DX011 (ip), vehicle: saline with Tween-80, higher = larger tumour
  T/C: 76 % of control
endpoint: mean tumor weight (est.), dose: 3.0 mg/kg/injection, schedule: Q01DX011 (ip), vehicle: saline with Tween-80, higher = larger tumour
  T/C: 67 % of control
endpoint: mean tumor weight (est.), dose: 6.0 mg/kg/injection, schedule: Q01DX011 (ip), vehicle: saline with Tween-80, higher = larger tumour
  T/C: 48 % of control
endpoint: median survival time, dose: 0.75 mg/kg/injection, schedule: Q01DX011 (ip), vehicle: saline with Tween-80, higher = longer survival
  T/C: 100 % of control
endpoint: median survival time, dose: 1.5 mg/kg/injection, schedule: Q01DX011 (ip), vehicle: saline with Tween-80, higher = longer survival
  T/C: 101 % of control
endpoint: median survival time, dose: 3.0 mg/kg/injection, schedule: Q01DX011 (ip), vehicle: saline with Tween-80, higher = longer survival
  T/C: 86 % of control
endpoint: median survival time, dose: 6.0 mg/kg/injection, schedule: Q01DX011 (ip), vehicle: saline with Tween-80, higher = longer survival
  T/C: 107 % of control

## COc1ccc([I+]c2ccc(OC)cc2)cc1
endpoint: median survival time, dose: 0.78 mg/kg/injection, schedule: Q01DX011 (ip), vehicle: saline, higher = longer survival
  T/C: 110 % of control
endpoint: median survival time, dose: 1.56 mg/kg/injection, schedule: Q01DX011 (ip), vehicle: saline, higher = longer survival
  T/C: 106 % of control
endpoint: median survival time, dose: 3.12 mg/kg/injection, schedule: Q01DX011 (ip), vehicle: saline, higher = longer survival
  T/C: 98 % of control
